PubChem BioAssay (NCI)
Values joined by “and” are separate entries in the source; they are usually repeats but may differ in a detail not shown here. Equal values may be shown once.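 Test compounds were applied to cells in 96-well plates for 48 hours at 5 doses. The concentration for 50% growth inhibition is given as GI50. TGI denotes the concentration required for complete inhibition of growth.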

How the values were obtained:
Test in all cases: inhibition of tumour cell growth, NCI panel, 48 h
OVCAR-5 ovarian = tested on: OVCAR-5 ovarian
KM12 colon = tested on: KM12 colon
OVCAR-3 ovarian = tested on: OVCAR-3 ovarian
SN12C renal = tested on: SN12C renal
OVCAR-4 ovarian = tested on: OVCAR-4 ovarian
ACHN renal = tested on: ACHN renal
RXF 393 renal = tested on: RXF 393 renal
HCC-2998 colon = tested on: HCC-2998 colon
MCF7 breast = tested on: MCF7 breast
MDA-MB-231 breast = tested on: MDA-MB-231 breast

| Structure (SMILES) | TGI (OVCAR-5 ovarian) | GI50 (KM12 colon) | TGI (KM12 colon) | GI50 (OVCAR-3 ovarian) | TGI (OVCAR-3 ovarian) | GI50 (SN12C renal) | TGI (SN12C renal) | GI50 (OVCAR-4 ovarian) | TGI (OVCAR-4 ovarian) | GI50 (ACHN renal) | TGI (ACHN renal) | TGI (RXF 393 renal) | GI50 (HCC-2998 colon) | TGI (HCC-2998 colon) | GI50 (MCF7 breast) | TGI (MCF7 breast) | GI50 (MDA-MB-231 breast) | TGI (MDA-MB-231 breast) | GI50 (RXF 393 renal) | GI50 (OVCAR-5 ovarian) |
| --- | --- | --- | --- | --- | --- | --- | --- | --- | --- | --- | --- | --- | --- | --- | --- | --- | --- | --- | --- | --- |
| CCOC(=O)c1c(-c2ccc(OC)c(O)c2)c(C#N)c(=S)n(C2OC(COC(C)=O)C(OC(C)=O)C(OC(C)=O)C2OC(C)=O)c1-c1ccccc1 (stereo not drawn) | > 100 µM | 27 µM and > 100 µM | 83.1 µM and > 100 µM | 20.9 µM and > 100 µM | 45.2 µM and > 100 µM | 33.8 µM and > 100 µM | > 100 µM | 47.2 µM and > 100 µM | > 100 µM | 36.6 µM and > 100 µM | > 100 µM | > 100 µM | 31.8 µM and > 100 µM | > 100 µM | 28.2 µM and > 100 µM | > 100 µM |  |  |  |  |
| CC(=O)OC1=C2CC[C@@H]3C(CC[C@@]4(C)C3CC[C@@H]4OC(C)=O)[C@@]2(C)CC(C#N)C1=O (stereo partly drawn) | > 100 µM |  | > 100 µM |  | 53.3 µM |  | > 100 µM |  | 59.4 µM |  | 71 µM | > 100 µM |  | > 100 µM |  |  |  |  |  |  |
| CCN(CCO)CCCC(C)Nc1ccnc2cc(Cl)ccc12 (stereo not drawn) |  | > 100 µM | > 100 µM | > 100 µM | > 100 µM | > 100 µM | > 100 µM | > 100 µM | > 100 µM | > 100 µM | > 100 µM | > 100 µM |  |  | > 100 µM | > 100 µM | > 100 µM | > 100 µM | 73.8 µM |  |
| O=C(CCCC(=O)N/N=C/c1cc(Cl)ccc1O)N/N=C\c1cc(Cl)ccc1O | > 100 µM | 3.98 µM | > 100 µM | 0.847 µM | > 100 µM | 4.3 µM | > 100 µM | 1.25 µM | > 100 µM | 1.58 µM | > 100 µM |  |  |  | 2.54 µM | > 100 µM | 2.63 µM | 91.6 µM |  | > 100 µM |
| CN=C1CN=C(OP(=O)(N2CCOCC2)N2CCOCC2)c2cc(Cl)ccc2N1 | > 100 µM |  | > 100 µM |  | > 100 µM |  | > 100 µM |  | > 100 µM |  | > 100 µM | > 100 µM |  | > 100 µM |  |  |  |  |  |  |
| CC[O-].CC[O-].O=C([CH-]C(=O)c1ccccc1)CCCCCCC(=O)[CH-]C(=O)c1ccccc1.[Ti+4] | > 100 µM | > 100 µM | > 100 µM | > 100 µM | > 100 µM | > 100 µM | > 100 µM | > 100 µM | > 100 µM | > 100 µM | > 100 µM | > 100 µM | > 100 µM | > 100 µM |  |  |  |  | > 100 µM | > 100 µM |
| [Co].[O-]c1cccnc1C=Nc1ccccc1.[OH3+] | > 100 µM | > 100 µM | > 100 µM | > 100 µM | > 100 µM | > 100 µM | > 100 µM | > 100 µM | > 100 µM | 79.9 µM | > 100 µM |  |  |  |  |  |  |  |  | > 100 µM |
| CCC[CH2][Sn]1([CH2]CCC)[O]CC[S]1 | 2.72 µM | 1.19 µM | 3.02 µM | 0.848 µM | 2.13 µM | 0.818 µM | 2.12 µM | 1.57 µM | 3 µM | 1.03 µM | 2.23 µM | 0.332 µM | 1.05 µM | 2.26 µM |  |  |  |  | 0.156 µM | 1.39 µM |
| CO/C=C(\Br)c1ccc2c(c1)OCO2 | > 100 µM |  | > 100 µM |  | > 100 µM |  | > 100 µM |  | > 100 µM |  | > 100 µM | > 100 µM |  |  |  |  |  |  |  |  |
| COc1ccc(C2=NN(C(C)=O)C(c3ccc(Oc4ccnc5cc(Cl)ccc45)c(OC)c3)C2)cc1 (stereo not drawn) | > 100 µM | > 100 µM | > 100 µM | 5.4 µM | > 100 µM | > 100 µM | > 100 µM |  |  | 4.03 µM | > 100 µM | 41 µM | > 100 µM | > 100 µM | 29.4 µM | > 100 µM | 7.52 µM | > 100 µM | 5.04 µM | > 100 µM |
| CC(=O)[CH-]C(C)=O.CC(=O)[CH-]C(C)=O.[Cl-].[O]=[V] | 70.1 µM |  |  | 25.5 µM | 51.6 µM | 58.1 µM | > 100 µM |  |  |  |  | 24.6 µM | 37.1 µM | > 100 µM |  |  |  |  | 10.9 µM | 26.4 µM |
| Cc1nc2ccccc2c(/C=C/c2ccccc2)c1C(=O)/C=C/c1ccc(C(F)(F)F)cc1 | 4.45 µM |  |  |  |  | 1.73 µM | 4.16 µM | 1.65 µM | 3.2 µM | 1.44 µM | 2.75 µM | 3.1 µM | 1.4 µM | 2.9 µM | 0.631 µM | 2.66 µM | 1.65 µM | 3.38 µM | 1.41 µM | 1.93 µM |
| COc1ccc(-c2oc3c(OC)c(OC)c(OC)c(O)c3c(=O)c2OC)cc1O | > 100 µM | 0.638 µM | 10.3 µM | < 0.01 µM |  | < 0.01 µM | > 100 µM |  | > 100 µM | 0.159 µM | > 100 µM | 0.504 µM |  | 8.64 µM |  |  |  |  |  |  |
| C/C(=C\C(C[C@](C)(O)C(O)CCC#C[Si](C)(C)C)S(=O)(=O)c1ccccc1)CC/C=C/CO[Si](C)(C)C(C)(C)C (stereo partly drawn) | 26.9 µM |  | 32.6 µM |  | 29.6 µM |  | 19 µM |  | 27.9 µM |  | 29.6 µM | 31.3 µM |  | 40.6 µM |  |  |  |  |  |  |
| O=C(CC1(O)C(=O)Nc2ccccc21)c1ccc(Cl)cc1Cl (stereo not drawn) | > 100 µM |  |  |  | > 100 µM |  | > 100 µM |  | > 100 µM |  | > 100 µM | > 100 µM |  |  |  |  |  |  |  |  |
| C=CCOc1ccc(N)c([N+](=O)[O-])c1 | > 100 µM |  | > 100 µM |  |  |  | > 100 µM |  |  |  | > 100 µM | > 100 µM |  | > 100 µM |  | > 100 µM |  |  |  |  |
| COc1ccc2c(c1)C(=O)c1c-2c(N2CCN(C(=O)CCNCCNCCN)CC2)nc2ccccc12 |  | 4.94 µM | 62.2 µM | 16.8 µM | 61.2 µM | 12.2 µM | 38.6 µM | 20.4 µM | 38.3 µM |  |  |  |  |  | 5.11 µM | 21.6 µM | 7.25 µM | 27.5 µM |  |  |
| N#CC1(N2CCCC2)CCC2(CC1)OCCO2 | > 100 µM |  | > 100 µM |  | > 100 µM |  | > 100 µM |  | > 100 µM |  | > 100 µM | > 100 µM |  | > 100 µM |  |  |  |  |  |  |
| CN(C)CCN(C)C(=O)c1cccc2cccc(C(=O)O)c12 | > 100 µM |  |  |  | > 100 µM |  | > 100 µM |  | > 100 µM |  | > 100 µM | > 100 µM |  | > 100 µM |  |  |  |  |  |  |
